Data reported in the NIST ThermoML archive (doi:10.1021/acs.jced.8b00229).

Conditions: Liquid, Vibrating tube method

C=CCCC [1-pentene]
Conditions | mass density [kg/m3]
283.48 K, 100 kPa | 650.3
283.48 K, 500 kPa | 650.8
283.48 K, 1000 kPa | 651.6
283.48 K, 3000 kPa | 654
283.48 K, 70000 kPa | 708.8
283.48 K, 80000 kPa | 714.8
283.49 K, 5000 kPa | 656.3
283.49 K, 10000 kPa | 661.8
283.49 K, 15000 kPa | 666.9
283.49 K, 20000 kPa | 671.7
283.49 K, 25000 kPa | 676.2
283.49 K, 30000 kPa | 680.4
283.49 K, 35000 kPa | 684.5
283.49 K, 40000 kPa | 688.4
283.49 K, 45000 kPa | 692.1
283.49 K, 50000 kPa | 695.7
283.49 K, 55000 kPa | 699.1
283.49 K, 60000 kPa | 702.5
283.49 K, 90000 kPa | 720.4
283.49 K, 100000 kPa | 725.7
293.42 K, 100 kPa | 640.1
293.42 K, 500 kPa | 640.7
293.42 K, 1000 kPa | 641.4
293.42 K, 3000 kPa | 644
293.42 K, 5000 kPa | 646.5
293.42 K, 10000 kPa | 652.4
293.42 K, 40000 kPa | 680.8
293.42 K, 55000 kPa | 692
293.42 K, 60000 kPa | 695.5
293.42 K, 70000 kPa | 702.2
293.42 K, 80000 kPa | 708.3
293.42 K, 90000 kPa | 714.1
293.42 K, 100000 kPa | 719.6
293.43 K, 15000 kPa | 657.9
293.43 K, 20000 kPa | 663
293.43 K, 25000 kPa | 667.8
293.43 K, 35000 kPa | 676.7
293.43 K, 45000 kPa | 684.7
293.43 K, 50000 kPa | 688.4
293.44 K, 30000 kPa | 672.3
303.33 K, 100 kPa | 629.8
303.33 K, 1000 kPa | 631.1
303.33 K, 3000 kPa | 634
303.33 K, 35000 kPa | 668.9
303.34 K, 5000 kPa | 636.7
303.34 K, 10000 kPa | 643.1
303.34 K, 15000 kPa | 649
303.34 K, 20000 kPa | 654.5
303.34 K, 25000 kPa | 659.6
303.34 K, 30000 kPa | 664.4
303.34 K, 40000 kPa | 673.2
303.34 K, 45000 kPa | 677.3
303.34 K, 50000 kPa | 681.2
303.34 K, 80000 kPa | 702
303.34 K, 90000 kPa | 707.9
303.35 K, 55000 kPa | 685
303.35 K, 60000 kPa | 688.6
303.35 K, 70000 kPa | 695.6
303.35 K, 100000 kPa | 713.6
313.27 K, 500 kPa | 620.4
313.27 K, 3000 kPa | 624.5
313.27 K, 5000 kPa | 627.5
313.27 K, 10000 kPa | 634.4
313.28 K, 1000 kPa | 621.3
313.28 K, 15000 kPa | 640.8
313.28 K, 20000 kPa | 646.7
313.28 K, 25000 kPa | 652.1
313.28 K, 30000 kPa | 657.2
313.28 K, 45000 kPa | 670.8
313.28 K, 50000 kPa | 674.9
313.28 K, 70000 kPa | 689.9
313.29 K, 35000 kPa | 661.9
313.29 K, 40000 kPa | 666.6
313.29 K, 55000 kPa | 678.8
313.29 K, 60000 kPa | 682.6
313.29 K, 80000 kPa | 696.4
313.29 K, 90000 kPa | 702.6
313.29 K, 100000 kPa | 708.4
323.18 K, 500 kPa | 608.6
323.18 K, 1000 kPa | 609.3
323.18 K, 3000 kPa | 612.8
323.18 K, 5000 kPa | 616.1
323.19 K, 10000 kPa | 623.7
323.19 K, 15000 kPa | 630.6
323.19 K, 20000 kPa | 636.9
323.19 K, 25000 kPa | 642.7
323.19 K, 30000 kPa | 648.1
323.19 K, 35000 kPa | 653.1
323.19 K, 40000 kPa | 657.9
323.19 K, 45000 kPa | 662.4
323.19 K, 50000 kPa | 666.7
323.19 K, 55000 kPa | 670.8
323.19 K, 60000 kPa | 674.7
323.19 K, 70000 kPa | 682.2
323.19 K, 80000 kPa | 689.1
323.19 K, 90000 kPa | 695.4
323.19 K, 100000 kPa | 701.5
333.04 K, 500 kPa | 597.2
333.04 K, 1000 kPa | 598.1
333.04 K, 3000 kPa | 601.9
333.04 K, 5000 kPa | 605.6
333.04 K, 10000 kPa | 613.9
333.05 K, 15000 kPa | 621.4
333.05 K, 20000 kPa | 628.1
333.05 K, 25000 kPa | 634.3
333.05 K, 30000 kPa | 640
333.05 K, 35000 kPa | 645.3
333.05 K, 40000 kPa | 650.4
333.05 K, 45000 kPa | 655.1
333.05 K, 50000 kPa | 659.6
333.05 K, 55000 kPa | 663.9
333.05 K, 60000 kPa | 668
333.05 K, 70000 kPa | 675.8
333.05 K, 100000 kPa | 695.8
333.06 K, 80000 kPa | 683
333.06 K, 90000 kPa | 689.6
342.94 K, 500 kPa | 585.8
342.94 K, 1000 kPa | 586.8
342.94 K, 90000 kPa | 684
342.95 K, 3000 kPa | 591.2
342.95 K, 5000 kPa | 595.3
342.95 K, 10000 kPa | 604.4
342.95 K, 70000 kPa | 669.9
342.95 K, 80000 kPa | 677.2
342.95 K, 100000 kPa | 690.4
342.96 K, 15000 kPa | 612.5
342.96 K, 20000 kPa | 619.8
342.96 K, 25000 kPa | 626.3
342.96 K, 30000 kPa | 632.4
342.96 K, 35000 kPa | 638.1
342.96 K, 40000 kPa | 643.4
342.96 K, 45000 kPa | 648.4
342.96 K, 50000 kPa | 653
342.96 K, 55000 kPa | 657.5
342.96 K, 60000 kPa | 661.8
352.82 K, 500 kPa | 574.2
352.82 K, 1000 kPa | 575.6
352.82 K, 3000 kPa | 580.5
352.82 K, 5000 kPa | 585.1
352.82 K, 10000 kPa | 595.2
352.83 K, 15000 kPa | 603.9
352.83 K, 20000 kPa | 611.7
352.83 K, 25000 kPa | 618.7
352.83 K, 30000 kPa | 625.2
352.83 K, 35000 kPa | 631.2
352.83 K, 40000 kPa | 636.7
352.83 K, 45000 kPa | 641.9
352.83 K, 50000 kPa | 646.9
352.83 K, 55000 kPa | 651.5
352.83 K, 70000 kPa | 664.3
352.83 K, 80000 kPa | 671.9
352.83 K, 90000 kPa | 679
352.83 K, 100000 kPa | 685.6
352.84 K, 60000 kPa | 655.9
362.67 K, 500 kPa | 560.5
362.67 K, 1000 kPa | 561.8
362.67 K, 3000 kPa | 567.4
362.67 K, 80000 kPa | 664.9
362.67 K, 100000 kPa | 679
362.68 K, 5000 kPa | 572.6
362.68 K, 10000 kPa | 583.8
362.68 K, 15000 kPa | 593.3
362.68 K, 20000 kPa | 601.7
362.68 K, 25000 kPa | 609.2
362.68 K, 30000 kPa | 616.1
362.68 K, 35000 kPa | 622.4
362.68 K, 40000 kPa | 628.2
362.68 K, 45000 kPa | 633.7
362.68 K, 50000 kPa | 638.9
362.68 K, 55000 kPa | 643.7
362.68 K, 60000 kPa | 648.3
362.68 K, 70000 kPa | 657.1
362.68 K, 90000 kPa | 672.2
